In patent US10285963B2, “Combination of metabolic bio-energetic and nutra-epigentic regulators, nutraceutical compounds in conventional and nanotechnologies combination to revert and prevent the chronic damage accelerated cellular senescence produced by diabetes and other degenerative chronic complex diseases” (priority 2015, dated 2019):

What was measured:
[1] = tested on: rabbits with alloxan-induced diabetes; test: Alloxan-induced diabetes in rabbits; format: in vivo
Method: (§1) In all tests carried out on laboratory animals the treatment was orally administered in a weight-dependent measure, through orogastric cannula, after conventional feed consumption for rodents and lagomorphs (Commission of the European Communities in Off. J. Eur. Comm (L 383 A), 1992, 35: 110), respectively.
(§2) Body weight was determined and recorded at the beginning and end of the experiment. Also in case of rabbits, clinical laboratory tests were performed before and after each test: blood biometry, blood chemistry and activity of transaminase enzymes: aspartate aminotransferase (AST), alanine aminotransferase (TGP) and transpeptidase gamma glutamyl transaminase (GGT). In rats, these parameters were determined only at the end of testing to prevent blood loss. Finally, we proceeded with the euthanasia step to animals applying a series of anesthetics and potassium chloride (KCl). Subsequently, an organ and fundamental tissue macroscopic examination and necropsy was conducted, primarily including heart, kidney, spleen, pancreas, lung, liver, ovaries and testicles, according to each case. Samples taken were sent to carry out a histopathological study.
(§3) In addition, the test in rats and rabbits with alloxan-induced diabetes was performed. […] Insulin glargine was administered subcutaneously at a dose of 0.7 U/kg in a single morning administration every 24 h.

[2] = tested on: rats with alloxan-induced diabetes; test: Alloxan-induced diabetes in rats; format: in vivo
Method: as §1, §2, §3

[3] = tested on: human embryonic kidney (HEK-293) cell line; test: MTT microdilution assay, HEK-293; format: cell-based
Text: (§4) MTT method, based on reduction of 3-(4,5-dimethylthiazol-2-yl)-2,5-diphenyltetrazolium bromide, is an assay that reflects the metabolic function of cells. MTT is a yellow dye reduced to formazan (blue dye) by mitochondrial dehydrogenases, which are part of the respiratory chain of viable cells (Hwa et al., 2015). It is used in a quantitative colorimetric microdilution method applied for determination of survival and proliferative capacity of mammalian cells (Mosmann T. in J. Immunol Methods, 1983, 65 (1-2): 55). […]
(§5) Dulbecco's modified Eagle Minimum Essential culture Medium/F12 (DMEM/F12) was used, supplemented with 10% fetal bovine serum (FBS) and 1 mL of a mixture of antibiotics (200,000 IU of penicillin and 0.5 g streptomycin). […] Subsequently MTT solution was removed, retaining the formed formazan salts, then they added 0.1 mL of isopropyl alcohol and the absorbance at 540 nm was read in a Synergy HT microplate reader with GEN 5 embedded software. In the calculation of cell viability percentage detected absorbance in wells with cells proliferated in untreated culture medium were considered 100% of living cells. […] Results of data analysis are expressed as the average±standard deviation (FIG. 5).

[4] = tested on: Vero cell line (African green monkey kidney cells); test: MTT microdilution assay, Vero; format: cell-based
Text: as §4, §5

[5] = tested on: Artemia salina nauplii; test: Artemia salina nauplii toxicity assay; settings: for toxicity expressed as percent mortality of A. salina nauplii: any of the tested concentrations (62.5-1000 ppm)
Text: Artemia salina is a crustacean sensitive to a wide range of compounds with biological activity and very different chemical structures. Michael et al. (Michael A. S. et al in Science, 1956, 123: 464) and Vanhaecke et al. (Vanhaecke et al in Ecotoxicol Environ Saf 1981, 5:382) proposed its use for toxicity testing. It is a test that allows conducting practically and economically toxicity studies of different nature substances. […] This model is accepted by the FDA (Food Drug Administration) and EPA (Environmental Protection Agency in 2002), as a test for evaluating the toxicity and ecotoxicity of pharmaceutical and/or food products.
In an Artemia salina hatcher, 0.5 g cysts of Artemia salina were hatched in artificial seawater at 37 g/L at a temperature of 27° C. with constant aeration for 24 h. In every 5 wells out of a 96-well plate, 0.1 mL of artificial seawater (37 g/L) was applied with a single-channel pipette with ten nauplii, separated from the hatcher and counted one by one to achieve an exact separation of 10 nauplii. […] Using a multichannel micropipette, 0.1 mL of the solutions prepared in the plate were added, achieving a final concentration of 62.5, 125, 250, 500 and 1000 ppm per five wells of nauplii. For blank samples, 10 untreated nauplii were placed in a 0.2 mL volume of artificial seawater (37 g/L). The microplate was incubated at 25° C. for 24 h. After incubation period, A. salina nauplii alive and dead were counted with a stereoscopic microscope and % mortality was determined. Toxicity was expressed as percent mortality of A. salina nauplii: 0-10% non-toxic, moderately toxic 11-50%, 51-90% highly toxic and 100% extremely toxic, considering the Gualdron et al, scale. (Gualdron R. et al in Chem Rev. Col. Farm, 1997, 26: 15 to 19). […] Data were analyzed with the Statistical Package Graph Pad Prism version 6, by analysis of variance (ANOVA) test and Tukey multiple comparisons (p<0.05).

[6] = tested on: peripheral human lymphocytes; test: Lymphocyte proliferation and viability, trypan blue count; format: cell-based; settings: positive control 1.25 mg/mL, 48 h
Text: For the assay, a biological in vitro system using mononuclear cells culture from peripheral blood mononuclear cells—peripheral human lymphocytes was used. The system was selected because they form from 25 to 35% of leukocytes and they are the main immune response promoting cells since they recognize foreign antigens and activate cellular immune response mediators, causing proliferation or suppression phenomena before endogenous or exogenous stimuli. These cultures are widely used in research to evaluate the effects of various compounds (Marti-Centelles R. et al in J. Med Chem Eur, 2015, 103: 488). […] As a positive control the test with concanavalin A (Con A) was performed, which is a globular plant-origin protein that induces mitosis in lymphocytes causing clonal proliferation (Ganem and Martin Gonzalez Baez F A O. in Universo Diagnóstico, 2000, 1 (1):1). Assay with RPMI-1640 (medium without treatment) was performed as blank. […]
Optical light microscope with 40× objective was used. Cells were counted with Neubauer chamber using 0.05 mL suspension of each resuspended samples in 0.4 mL of PBS 1× and 0.05 mL of trypan blue. […] The results were analyzed by the variance analysis test (ANOVA) with SPSS version 16 and then Dunnet's test was applied to discern whether a difference between control and experimental treatments was present, taking values of p<0.05 as significant.

[7] = tested on: human peripheral blood mononuclear cells (lymphocytes) DNA; settings: 0.1 mM, positive control, 24 h
Method: By using culture medium cell concentration was adjusted to 1×10^6 cells/mL. Cells obtained were seeded in Eppendorf vials at a density of 3×10^4 cells/mL and incubated at 37° C. and 5% CO2 for 24 hours to stabilize. […] Cells were incubated for 24 h to be later precipitated by centrifugation at 1200 rpm for 5 min and treated with 0.1 mL trypsin (0.25%) for 3 min at 37° C. and 5% CO2. Cells were resuspended in 1 mL of RPMI 1640 medium and centrifuged again at 1200 rpm for 5 min, the supernatant was discarded and the cells were incubated with 1 mL of lysis solution (NaCl 2.5 M, Na2EDTA 100 mM, Tris HCl 10 mM, and 1% Triton) at 4° C. for 24 h. After 24 h, vials were centrifuged at 1200 rpm at 4° C. […] The generated images were acquired with a high resolution digital camera (FIG. 4, above) and analyzed with ImageQuant TL v8.1 software. The area of the comet head representing intact DNA was quantified by densitometric analysis and plotted as percentage versus the negative control (culture medium) (FIG. 4, in the middle). The tail of the comet representing the damaged DNA was measured in millimeters and represented as the percentage of the positive control (H2O2). Data were expressed as mean±mean standard deviation (FIG. 4, below). Data obtained were analyzed by analysis of variance (ANOVA) using in case of any difference a post-hoc Tukey test using GraphPad Prism v6.0 software, at p<0.05.

[8] = positive control, 1.95-2000 ppm

Q: Which results are given for insulin?
A: kidney histology ([1]; diabetic female rabbit treated only with insulin): early diabetic nephropathy; pancreas histology ([1]; diabetic female rabbit treated only with the named treatment): complete destruction of the organ; kidney histology, tubular component ([1]; diabetic male rabbit treated only with insulin): changes by coagulative necrosis and nuclei pyknosis; macroscopic pancreatic alterations at autopsy ([1]; diabetic rabbits, single treatment only): most severe pancreatic alterations; capillary glucose ([2]; diabetic rats treated only with insulin, up to 19 days): increase in the tendency for capillary glucose; weight change ([2]; diabetic rats, pure insulin, compared to other groups): tendency of weight loss decrease is much more visible; macroscopic pancreatic alterations at autopsy ([2]; diabetic rats, single treatment only): most severe pancreatic alterations

Q: For Triton X-100, which LC50 ([3]; HEK-293, MTT, 24 h) is on record?
A: 764.10±21.93 ppm

Q: What about the effect on absorbance/viability [3, 8] of the same compound?
A: dose-depending effect

Q: What about the LC50 ([4]; Vero, MTT, 24 h) of the same compound?
A: 42.80±1.60 ppm

Q: What about the effect on absorbance/viability [4, 8] of the same compound?
A: dose-depending effect

Q: Which results are given for “3, 5, 4-trihydroxy-trans-stilbene [resveratrol]”?
A: mortality of A. salina nauplii ([5]; 62.6 ppm solution, 24 h): 38%; toxicity class (percent mortality scale) ([5]; 62.6 ppm solution, 24 h): moderate toxicity; LC50 (lethal concentration to 50% nauplii) ([5]; 24 h): 89.48 ppm; toxicity class (percent mortality scale) ([5]; from the LC50 concentration (89.48 ppm)): highly toxic (51-90% highly toxic)

Q: With `N=C(N)NCCC[C@H](N)C(=O)O` [arginine] as the compound, how does the “toxicity expressed as percent mortality of A. salina nauplii” value ([5]; 24 h) read?
A: toxicity free

Q: Which “increase in the number of cells” value [6] does the source give for concanavalin A here?
A: 65%

Q: What about the number of cells [6] of the same compound?
A: 9,101,667 cells/mL

Q: `NCC(=O)O` [Glycine, glycine] was tested. Which “toxicity expressed as percent mortality of A. salina nauplii” value ([5]; 24 h) did it give?
A: toxicity free

Q: `OO` [hydrogen peroxide] was tested. Which “DNA damage (genotoxicity)” value [7] did it give?
A: much more rapid dsDNA diffusion
